The source of these data is patent US20250163057A1, “DCN-1 MODULATING COMPOUNDS AND METHODS OF USE THEREOF” (Cellarity, Inc., priority 2023, published 2025).

Each structure is given as a SMILES string. Like-named read-outs stand apart in the source and are kept apart here. Some results are limits rather than exact numbers.

Assay [1] relates to fetal hemoglobin gene HBG1. Kind of assay: HBG1 Nanostring Assay in CD34+ HSPC erythroid differentiation culture. It counts as cell-based, human. The following applies: for Nanostring Ymax obs (%): relative to a control compound (C1); for EC50: Homo sapiens, 240 h, HBG1 induction, Day10 of erythroid differentiation. The procedure:
A Nanostring Assay was performed to evaluate the ability of the compounds to induce expression of the fetal hemoglobin gene HBG1 in cells. The data are shown as EC50, with stronger inducers having a lower EC50 value and higher YMax.
Forty eight hours later (day −2), the cells were passaged at a density of 200,000 cells/ml (100 ul/well in 96well culture plate) in complete expantion media. The cells were plated at 200,000 cells/ml on day 0 and day 3, 400,000 cells/ml on day 5 in phase 1 erythroid differentiation containing StemSpan with 2.5 U/mL of EPO (R&D systems, 287-TC-500), 0.5 mg/mL of Holo-Transferrin (Sigma, T0665-500MG), 1× Glutamine (Gluta-Max) (Gibco, 35050-061), 5 μL/mL Lipid Mixture (Sigma, L0288-100ML), 50 ng/mL SCF (R&D Systems, 255-SV-050), 10 ng/mL IL-3 (R&D Systems, 203-IL010) and 10 ng/mL Insulin (Sigma, I9278-5ML) all 200 μl per well in 96 well culture plate. Cells were then passaged at 500,000 cells/ml and 200 μl per well on day 7 in phase 2 Erythroid differentiation (Phase 1 erythroid differentiation removing IL-3) until collection day (Day10). The culture conditions were used for both control DMSO as well as experimental treatments.
For all cell pasagings, cells were centrifuged at 300 g for 8 minutes at room temperature and cell number were normalized by MANTIS and Integra VIAFLO 384. All the compounds are diluted in DMSO and added to complete media by Formulatrix FAST and mixed starting from day −2. Cells were counted by Luna cell counter with AOPI Staining Solution (Nexcelom Bioscience, CS2-0106-25 mL) on day-2. Cells were counted by BD FACSCelesta Flow Cytometer with CountBright™ Plus Absolute Counting Beads (Thermal Fisher Scientific, C36995) and SYTOX AADvanced™ Ready Flow™ Reagent (Invitrogen, R37173) for other passages. Cells were cultured at 37° C. and 5% CO2. DMSO concentration was kept at 0.1% to minimize any effects to the cells by the vehicle. […] Compound plates were kept at room temperature to protect from light to avoid multiple freeze and thaw cycle.
On the collection day (Day10), 100K cells were collected and stored at −80° C. For direct hybridization for Nanostring, 100K cell pellet was lyzed in 25 μL of RLT (QIAGEN, 79216) with 1×β-Mercaptoethanol (Gibco, 21985-023) and shaked at 300-500 RPM for 5 minutes at room temperature. Cell lysate was stored in −80° C. after lysis.
All hybridizations were done in a total volume of 15 μL (3 μL of RNA lysate added to master mix of 12 μL probe A/B, capture probe/reporter probes, proteinase K and attenuation oligos suspended in hybridization buffer). Samples were hybridized at 67° C. for 22 hr. Following hybridization, the tripartide complexes were purified, immobilized by nCounter Prep Station and imaged by Digital Analyzer (nCounter MAX/FLEX Analysis System), to generate digital counts of barcodes corresponding to each target in the multiplexed reaction. Labeled barcodes obtained from unamplified extracts were counted at 555 images or field of view (FOV). The barcode counts for each sample were recorded in Reporter Code Count (RCC) files that are imported into nSolver analysis software (provided with CodeSet by NS) for quality control evaluation.
The quality control (QC) metric included limit of detection QC by checking for wells with less than 100 total counts for positive controls.
Hybridization signals were normalized against the ERCC positive controls and CodeSet Content (housekeeping gene). Briefly, this involved first calculating a sample-specific scaling factor by calculating arithmetic mean of geomeans of all ERCC positive controls with counts more than zero in all samples. Then this arithmetic mean was divided by the geometric mean of each lane to generate a lane-specific normalization factor. All negative controls and target-specific signal values were then normalized by multiplying counts values with their sample-specific scaling factor. The acceptable range for scaling factors is 0.3-3.0. […]

The test system of assay [2] is Cullin-3 (CUL3) neddylation. Kind of assay: AlphaLISA assay for Cullin-3 (CUL3) neddylation in TF 1 cells. The class given is cell-based. The conditions noted are these: Homo sapiens, 3 hours treatment. Put shortly: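 Neddylated CUL3 was quantified by AlphaLISA in lysates of TF 1 cells exposed for 3 h to test compound in IMDM without supplements. Percent inhibition set between vehicle and 1 μM DI-1548 positive control; IC50 derived by Hill-equation fitting of dose-response curves.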
(In general: Alpha assays give light when donor and acceptor beads are brought close together.)

For assay [3], the target named is DCN1 (DCUND1) protein PONY domain (Homo sapiens (Human), UniProt Q96GG9). Kind of assay: TR-FRET assay, DCN1 binding with FAM-labeled probe. In short, it runs like this: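 First, the E. coli-derived PONY domain was biotinylated and paired with streptavidin Tb cryptate. Compounds in 0.1% DMSO were then added to DCN1 and FAM-probe (5 nM/20 nM, or 0.31 nM/900 nM total with 800 nM unlabelled) in TritonX, 200 mM NaCl buffer. Finally, TR-FRET ratios were recorded at 1, 5 and 24 hrs.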
Sequence of DCN1 (DCUND1) protein PONY domain (Q96GG9 60-248): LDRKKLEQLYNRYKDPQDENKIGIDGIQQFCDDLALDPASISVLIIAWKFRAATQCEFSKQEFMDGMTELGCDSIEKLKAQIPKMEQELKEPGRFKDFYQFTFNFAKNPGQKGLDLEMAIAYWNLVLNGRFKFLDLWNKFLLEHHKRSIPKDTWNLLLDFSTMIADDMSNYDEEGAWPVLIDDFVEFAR
A general note: In TR-FRET formats the signal depends on donor and acceptor labels being close together.

In a further assay the target is DCN1 protein (Homo sapiens (Human), UniProt Q96GG9). The experiment in a line: Intact Protein MS Analysis with the RapidFire-TOF System (covalent adduct formation). The class given is binding. The following applies: MS Emax; 400 nM DCN1, 3 hours at room temperature. In short, it runs like this: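 Tag-cleaved human DCN1 (400 nM) expressed in E. coli, in 25 mM Tris-HCl, 200 mM NaCl, 1 mM DTT, was incubated with 11 compound concentrations for 3 h at room temperature and quenched with 0.2% formic acid. Intact-protein Q-TOF MS with deconvolution detected the compound adduct mass.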
Sequence of DCN1 protein (Q96GG9 whole entry): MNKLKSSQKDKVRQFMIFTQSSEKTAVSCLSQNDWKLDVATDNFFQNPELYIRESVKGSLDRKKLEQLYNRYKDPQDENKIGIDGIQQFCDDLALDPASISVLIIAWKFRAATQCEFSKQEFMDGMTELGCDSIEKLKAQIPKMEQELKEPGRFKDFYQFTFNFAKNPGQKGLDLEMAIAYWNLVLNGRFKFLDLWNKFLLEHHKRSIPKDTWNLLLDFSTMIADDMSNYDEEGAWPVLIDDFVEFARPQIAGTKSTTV

[4] abbreviates: 24 hr after treatment with compound, read-out: TR FRET IC50 24 hr.
Setting [5] is: read-out: TR FRET IC50 1 hr, 1 hr after treatment with compound.

Usually IC50 stands for the concentration that gives 50% inhibition. For the molecule `C=C(C(=O)NCc1nn(-c2ccccc2)c2c1[C@H](c1ccc(F)cc1)[C@H](NC(=O)c1cccc(C(F)(F)F)c1)C(=O)N2CC)C(C)N1CCOCC1` (mixture of isomers) [Compound I-89], in assay [1], the “Nanostring Ymax obs (%)” value is “++ (Nanostring Ymax greater than 50.0 and less than or equal to 100.0)”. Besides, the IC50 was at most 100 nM in assay [2] (TF-1, 3 h); at most 200 nM in assay [3] (setting [4]); at most 200 nM in assay [3] (setting [5]).

As usually defined, the EC50 is the concentration at which the effect is half-maximal. A low value points to higher potency in that assay. `CCN1C(=O)[C@H](NC(=O)c2cccc(C(F)(F)F)c2)[C@H](c2ccc(F)cc2)c2c(C(=O)N3C[C@H](F)C[C@@H]3C#N)nn(-c3ccccc3)c21` (mixture of isomers) [Compound I-253, N-((4RS,5RS)-3-((2R,4R)-2-cyano-4-fluoropyrrolidine-1-carbonyl)-7-ethyl-4-(4-fluorophenyl)-6-oxo-1-phenyl-4,5,6,7-tetrahydro-1H-pyrazolo[3,4-b]pyridine-5-yl)-3-(trifluoromethyl)benzamide]: the EC50 in assay [1] is above 1000 nM. For the same molecule, in assay [1], the “Nanostring Ymax obs (%)” value was “++ (Nanostring Ymax greater than 50.0 and less than or equal to 100.0)”. Moreover, the half-maximal inhibitory concentration (IC50) in assay [2] (TF-1, 3 h) is at most 100 nM; in assay [3] (setting [4]), at most 200 nM; in assay [3] (TR FRET IC50 1 hr (nM), 1 hr after treatment with compound), 1000 to 3000 nM.

Turning to `C=C(CN1CC2CCC1CO2)C(=O)NCc1nn(-c2ccccc2)c2c1[C@H](c1ccc(F)cc1)[C@H](NC(=O)c1cccc(C(F)(F)F)c1)C(=O)N2CC` (mixture of isomers) [Compound I-447], in assay [1], the EC50 was at most 100 nM. For the same molecule, the “Nanostring Ymax obs (%)” value in assay [1] is listed as “+++ (Nanostring Ymax greater than 100.0)”. Besides, the IC50 is at most 100 nM in assay [2] (TF-1, 3 h); at most 200 nM in assay [3] (setting [4]); at most 200 nM in assay [3] (setting [5]).

In the case of `C=CS(=O)(=O)NCc1nn(-c2ccccc2)c2c1[C@H](c1ccc(F)cc1)[C@H](NC(=O)c1cccc(C(F)(F)F)c1)C(=O)N2CC` (racemic) [Compound I-230], in assay [1], the EC50 was above 1000 nM; the “Nanostring Ymax obs (%)” value was “++ (Nanostring Ymax greater than 50.0 and less than or equal to 100.0)”. Also, in assay [2] (TF-1, 3 h), the 50% inhibitory concentration (IC50) is at most 100 nM.

On to `N#C[C@@H]1C[C@H]2C[C@H]2N1C(=O)c1nn(C2CCOCC2)c2c1[C@H](C1CC1)[C@H](NC(=O)c1cccc(C(F)(F)F)c1)C(=O)N2C1CC1` [Compound I-388, N-((4S,5S)-3-((1R,3S,5R)-3-cyano-2-azabicyclo[3.1.0]hexane-2-carbonyl)-4,7-dicyclopropyl-6-oxo-1-(tetrahydro-2H-pyran-4-yl)-4,5,6,7-tetrahydro-1H-pyrazolo[3,4-b]pyridin-5-yl)-3-(trifluoromethyl)benzamide], for which the “% Adduct Formation” value at DCN1 protein was “++ (MS Emax % adduct formation greater than 30.0 and less than or equal to 80.0)”. Besides, the IC50 was at most 100 nM in assay [2] (TF-1, 3 h); at most 200 nM in assay [3] (setting [4]); at most 200 nM in assay [3] (setting [5]).

`CCN1C(=O)[C@@H](NC(=O)c2cccc(SC(F)(F)F)c2)[C@@H](C2CC2)c2c(C(=O)N3[C@H](C#N)C[C@H]4C[C@H]43)nn(C3CCOCC3)c21` [Compound I-389]: the “% Adduct Formation” value at DCN1 protein was “+++ (MS Emax % adduct formation greater than 80.0 and less than or equal to 100.0)”. Besides, the results for the IC50 in assay [2], in assay [3] (setting [4]) and in assay [3] (setting [5]) were at most 100 nM, at most 200 nM and at most 200 nM, respectively.

On to `CCN1C(=O)[C@@H](NC(=O)c2cccc(C(F)(F)F)n2)[C@@H](C2CC2)c2c(C(=O)N3[C@H](C#N)C[C@H]4C[C@H]43)nn(C3CCOCC3)c21` [Compound I-390], for which the “% Adduct Formation” value at DCN1 protein is “+++ (MS Emax % adduct formation greater than 80.0 and less than or equal to 100.0)”. Besides, the IC50 was at most 100 nM in assay [2], at most 200 nM in assay [3] (setting [4]) and at most 200 nM in assay [3] (setting [5]).

In the case of `CCN1C(=O)[C@@H](NC(=O)c2ccc3c(c2)CCC3)[C@@H](C2CC2)c2c(C(=O)N3[C@H](C#N)C[C@H]4C[C@H]43)nn(C3CCOCC3)c21` [Compound I-391], the “% Adduct Formation” value at DCN1 protein was “+++ (MS Emax % adduct formation greater than 80.0 and less than or equal to 100.0)”. Besides, the IC50 is at most 100 nM in assay [2], at most 200 nM in assay [3] (setting [4]) and at most 200 nM in assay [3] (setting [5]).

For the molecule `CCN1C(=O)[C@@H](NC(=O)c2csc(C(F)(F)F)n2)[C@@H](C2CC2)c2c(C(=O)N3[C@H](C#N)C[C@H]4C[C@H]43)nn(C3CCOCC3)c21` [Compound I-392], at DCN1 protein, the “% Adduct Formation” value was “+++ (MS Emax % adduct formation greater than 80.0 and less than or equal to 100.0)”. For the same molecule, the figures for the IC50 in assay [2], in assay [3] (setting [4]) and in assay [3] (setting [5]) were at most 100 nM, at most 200 nM and at most 200 nM, respectively.

`CCN1C(=O)[C@@H](NC(=O)c2cccc3c2OCCC3)[C@@H](C2CC2)c2c(C(=O)N3[C@H](C#N)C[C@H]4C[C@H]43)nn(C3CCOCC3)c21` [Compound I-394]: the “% Adduct Formation” value at DCN1 protein is “+++ (MS Emax % adduct formation greater than 80.0 and less than or equal to 100.0)”. Moreover, the IC50 is at most 100 nM in assay [2], at most 200 nM in assay [3] (setting [4]) and at most 200 nM in assay [3] (setting [5]).

As to `CCN1C(=O)[C@@H](NC(=O)c2cccc(OC)c2)[C@@H](C2CC2)c2c(C(=O)N3[C@H](C#N)C[C@H]4C[C@H]43)nn(C3CCOCC3)c21` [Compound I-395], the “% Adduct Formation” value on DCN1 protein is “+++ (MS Emax % adduct formation greater than 80.0 and less than or equal to 100.0)”. Further, the IC50 in assay [2] was at most 100 nM; in assay [3] (setting [4]), at most 200 nM; in assay [3] (setting [5]), at most 200 nM.

Consider `CCN1C(=O)[C@@H](NC(=O)c2cccc(OC(F)(F)F)c2)[C@@H](C2CC2)c2c(C(=O)N3[C@H](C#N)C[C@H]4C[C@H]43)nn(C3CCOCC3)c21` [Compound I-396], for which, at DCN1 protein, the “% Adduct Formation” value was “+++ (MS Emax % adduct formation greater than 80.0 and less than or equal to 100.0)”. The IC50 in assay [2] was at most 100 nM; in assay [3] (setting [4]), at most 200 nM; in assay [3] (setting [5]) it was at most 200 nM.

`CCN1C(=O)[C@@H](NC(=O)c2cccc3c2OCO3)[C@@H](C2CC2)c2c(C(=O)N3[C@H](C#N)C[C@H]4C[C@H]43)nn(C3CCOCC3)c21` [Compound I-397]: on DCN1 protein, the “% Adduct Formation” value is “+++ (MS Emax % adduct formation greater than 80.0 and less than or equal to 100.0)”. Moreover, the results for the IC50 in assay [2], in assay [3] (setting [4]) and in assay [3] (setting [5]) were at most 100 nM, at most 200 nM and at most 200 nM, respectively.
